Experimental data from patent US20170107577A1, “Determining Cancer Aggressiveness, Prognosis and Responsiveness to Treatment” (THE COUNCIL OF THE QUEENSLAND INSTITUTE OF MEDICAL RESEARCH, priority 2014, published 2017).

Tests used:
Type in all cases: cell-based
[1] = tested on: breast cancer cell lines; experiment: Screen of 24 anti-cancer drugs on 10 breast cancer cell lines (MTS/MTA, six days) re-analysed by iBCR score; conditions: 5 high vs 5 low iBCR score cell lines
Procedure: FIG. 47: The sensitivity of breast cancer cell lines treated with 24 drugs according to the iBCR score. Breast cancer cell lines (10 cell lines) were cultured in the absence or presence of escalating doses of 24 small molecular anti-cancer drugs. This published study was re-analyzed to compare the sensitivity (calculated as the −log IC50) between high iBCR score cell lines (5 cell lines: BT-549, MDA-MB-231, MDA-MB-436, MDA-MB-468 and BT-20) to low iBCR score cell lines (5 cell lines: Hs.578T, BT-474, MCF-7, T-47D, and ZR-75-1). The iBCR scores were calculated from the Agro and TN scores using the published gene expression dataset for 51 breast cancer cell lines (Neve et al., Cancer Cell, 2006). […] Statistical comparison was performed in GraphPad® Prism using two tailed unpaired t-test.
Breast cancer cell lines (10 cell lines); BT-549, MDA-MB-231, MDA-MB-436, MDA-MB-468, BT-20, Hs.578T, BT-474, MCF-7, T-47D, and ZR-75-1, were cultured in the absence or presence of escalating doses of 24 anti-cancer drugs. The survival of cells was determined six days in comparison to untreated cells using the MTS/MTA assay. The response of the cell lines to the drugs was analyzed in GraphPad® Prism using a dose response curve to calculate the log10 of IC50 (IC50 is the dose required to kill 50% of the cells). Sensitivity was presented as the −log10[IC50]. This drug screen which we published previously (Al-Ejeh et al., Oncotarget, 2014) was re-analyzed according to the iBCR score. The gene expression datasets of 51 breast cancer cell lines by Neve et al. (Cancer Cell, 2006), was analyzed to calculate the Agro and TN scores for each cell line to calculate the iBCR score. Each cell line was assigned as low of high iBCR score by dichotomy across the median of all the cell lines in the Neve et al. dataset. Based on the low or high iBCR score classification, the sensitivity of the 10 cell lines used in our screen was compared between high iBCR score cell lines (5 cell lines) to low iBCR score cell lines (5 cell lines). […] PLC[…] (U73122), INK (SP600125), PAK1 MEK (AS703026 and AZD6244), ERK5 (XMD 8-92 and BIX02188). HSP90 (17-AAa PF0429113 and AUY922), IGF1R (GSK1904529A) and EGFR (Afatinib). The results from our screen are in agreement with the higher sensitivity of high iBCR score cancer cell lines to HSP90, IGF1R and MEK inhibitors we identified from the two previously published large cell line studies.

[2] = tested on: cancer cell lines; experiment: Garnett et al. drug screen re-analysed by TN/Agro/iBCR score; conditions: Garnett et al. study; for sensitivity (−log10[IC50]) of high TN score vs low TN score cell lines: dichotomy across median TN score; for sensitivity of high iBCR score vs low iBCR score cell lines: dichotomy across median iBCR score
Procedure: FIG. 24: Drug sensitivity of cancer cell lines according to the TN score. The large published study by Garnett et al. was investigated where the TN score was calculated for each cell line in the study as described in Methods. The cell lines were classified as high or low TN score according to the median TN score to compare the sensitivity of low TN score cell lines (white boxes) and high TN score cell lines (red boxes). Graphs were prepared using GraphPad® Prism showing sensitivity as −log 10[IC50] in boxes (with median marked by a line) and whiskers (marking the 1st and 3rd quartiles and outliers as dots according to Tukey method for plotting the whiskers and outliers). Unpaired two-tailed t test was used for statistical analysis.
FIG. 30: Drug sensitivity of cancer cell lines according to the iBCR score. The large published study by Garnett et al. was investigated where the iBCR score was calculated for each cell line from the Agro and TN scores. The cell lines were classified as high or low iBCR score according to the median iBCR score to compare the sensitivity of low iBCR score cell lines (white boxes) and […] (red boxes). Results according to low and high Agro score were also included.
(§1) Two large studies which treated large panels of cancer cell lines with large panels of anticancer drugs were investigated to determine whether cell lines with high Agro, TN or iBCR scores show different sensitivity to particular anticancer drugs in comparison to cancer cell lines with low Agro, TN or iBCR scores. Briefly, the datasets of gene expression profiling from Genentech (mRNA Cancer Cell Line Profiles GSE10843), Pfizer (Pfizer Molecular Profile Data for Cell Line GSE34211) and Broad Institute/Novartis (Cancer Cell Line Encyclopedia [CCLE] GSE3613) were obtained from GEO and imported into ArrayTools as described earlier. The Agro, TN and iBCR scores for all the cell lines profiled were calculated and cell lines were assigned as high or low for each of the scores based on dichotomy across the median in each dataset. For cell lines which were profiled in more than one dataset, the average scores were used. […] Statistical significance was determined from unpaired two-tailed t-test using GraphPad® Prism.
(§2) In the second approach, published studies which surveyed panels of molecular drugs against, cancer cell lines were analyzed. The Cancer Cell Line Encyclopedia (CCLE) study investigated the pharmacological profiles for 24 anticancer drugs across 479 cancer cell lines which were also profiled with gene expression arrays. We calculated the TN score for each cell line in this study and compared the sensitivity of these cell lines to the anticancer drugs according to the TN score. […] In a similar method, we also analyzed a second large study. Garnett et al., which tested 130 drugs against more than 600 cancer cell lines.

[3] = tested on: cancer cell lines; experiment: Cancer Cell Line Encyclopedia (CCLE) drug sensitivity re-analysed by TN/Agro/iBCR score; conditions: CCLE study; for sensitivity (IC50) of high TN score vs low TN score cell lines: dichotomy across median TN score; for sensitivity (IC50) of high iBCR score vs low iBCR score cell lines: dichotomy across median iBCR score
Procedure: (§3) FIG. 35: Sensitivity of cancer cell lines to anticancer drugs according to the TN score in the Cancer Cell Line Encyclopedia (CCLE) study. The gene expression data of the cancer cell lines in the study were analyzed to calculate the TN score for each cell line and were assigned to low or high TN score by dichotomy across the median. The IC50 for each of the 24 drugs used in the CCLE study was compared between high and low TN score cell lines and the data shown are those with statistical differences based on unpaired two-tailed t-test performed using GraphPad® Prism.
as §3, with “FIG. 42: Sensitivity of” for “FIG. 35: Sensitivity of”, “to the iBCR score in” for “to the TN score in”, “or high iBCR score by” for “or high TN score by”, “and low iBCR score cell” for “and low TN score cell”, “GraphPad® Prism. As this analysis was also done for the TN score (FIG. 35), results from analysis of the Agro score are also shown in the top row.” for “GraphPad® Prism.”
as §1, §2

Structure (SMILES)	sensitivity (−log10[IC50]) of high TN score vs low TN score cell lines [2]	sensitivity of high iBCR score vs low iBCR score cell lines [2]	further results
CCNC(=O)c1noc(-c2cc(C(C)C)c(O)cc2O)c1-c1ccc(CN2CCOCC2)cc1 [AUY922]			sensitivity (−log10[IC50]) of high iBCR score vs low iBCR score breast cancer cell lines [1]: significantly more sensitive
CC[C@@H]1C(=O)N(C)c2cnc(Nc3ccc(C(=O)NC4CCN(C)CC4)cc3OC)nc2N1C1CCCC1 [B1-2536]		more sensitive	sensitivity of high Agro score vs low Agro score cell lines [2]: more sensitive
CC1(C)CC(=O)c2c(C(F)(F)F)nn(-c3ccc(C(N)=O)c(N[C@H]4CC[C@H](OC(=O)CN)CC4)c3)c2C1 [PF0429113]			sensitivity (−log10[IC50]) of high iBCR score vs low iBCR score breast cancer cell lines [1]: significantly more sensitive
CC(C)(C)Cn1c(N)nc2ccc(-c3[nH]c(C(C)(C)C)nc3-c3ccc(F)cc3)nc21 [LY2228820]			sensitivity (−log10[IC50]) of high iBCR score vs low iBCR score breast cancer cell lines [1]: significantly more sensitive
C#Cc1cccc(Nc2ncnc3cc(OCCOC)c(OCCOC)cc23)c1 [Erlotinib]			sensitivity (IC50) of high TN score vs low TN score cell lines [3]: more sensitive
CC1(C)CCC(c2ccc(Cl)cc2)=C(CN2CCN(c3ccc(C(=O)NS(=O)(=O)c4ccc(N[C@H](CCN5CCOCC5)CSc5ccccc5)c(S(=O)(=O)C(F)(F)F)c4)cc3)CC2)C1 [ABT-263]	less sensitive	less sensitive	
C[C@]1(c2nc3c(C(N)=O)cccc3[nH]2)CCCN1 [ABT-888]	less sensitive	less sensitive	
Cn1cnc2c(F)c(Nc3ccc(Br)cc3Cl)c(C(=O)NOCCO)cc21 [AZD6244]			sensitivity (−log10[IC50]) of high iBCR score vs low iBCR score breast cancer cell lines [1]: significantly more sensitive
CN(NC(=O)CC(=O)NN(C)C(=S)c1ccccc1)C(=S)c1ccccc1 [Elesclomol]	sensitive		
CCc1cc(Nc2nccc(-c3c(-c4ccc(OC)c(C(=O)Nc5c(F)cccc5F)c4)nc4ccccn34)n2)c(OC)cc1N1CCC(N2CCN(S(C)(=O)=O)CC2)CC1 [GSK1904529A]			sensitivity (−log10[IC50]) of high iBCR score vs low iBCR score breast cancer cell lines [1]: significantly more sensitive
COc1ccc(-c2cc3nccn3c(Nc3ncccc3C(N)=O)n2)cc1OC [BAY613606]		less sensitive	
CN1CCN(c2ccc3nc(-c4c(N)c5c(F)cccc5[nH]c4=O)[nH]c3c2)CC1 [TKI258]			sensitivity (IC50) of high iBCR score vs low iBCR score cell lines [3]: less sensitive
COc1ccc2c(c1)CC[C@@H]1[C@@H]2CC[C@]2(C)[C@@H](NCCCCCCN3C(=O)C=CC3=O)CC[C@@H]12 [U73122]			sensitivity (−log10[IC50]) of high iBCR score vs low iBCR score breast cancer cell lines [1]: significantly more sensitive
CC1=C(/C=C/C(C)=C/C=C/C(C)=C/C(=O)O)C(C)(C)CCC1 [ATRA, all-trans retinoic acid]	less sensitive	less sensitive	
O=C(CCCCCCC(=O)Nc1ccccc1)NO [Vorinostat]		less sensitive	
CN(C)C(=N)N=C(N)N [metformin]	less sensitive	less sensitive	
CS(=O)(=O)CCNCc1ccc(-c2ccc3ncnc(Nc4ccc(OCc5cccc(F)c5)c(Cl)c4)c3c2)o1 [Lapatinib]			sensitivity (IC50) of high TN score vs low TN score cell lines [3]: more sensitive
CCOc1cc(N2CCC(O)CC2)ccc1Nc1ncc2c(n1)N(C)c1ccccc1C(=O)N2C [XMD 8-92]			sensitivity (−log10[IC50]) of high iBCR score vs low iBCR score breast cancer cell lines [1]: significantly more sensitive
O=C(NC[C@H](O)CO)c1ccncc1Nc1ccc(I)cc1F [AS703026]			sensitivity (−log10[IC50]) of high iBCR score vs low iBCR score breast cancer cell lines [1]: significantly more sensitive
Cc1cn(-c2cc(NC(=O)c3ccc(C)c(Nc4nccc(-c5cccnc5)n4)c3)cc(C(F)(F)F)c2)cn1 [Nilotinib]		less sensitive	sensitivity (IC50) of high TN score vs low TN score cell lines [3]: less sensitive; sensitivity (IC50) of high iBCR score vs low iBCR score cell lines [3]: less sensitive
O=C(c1cc(Cc2n[nH]c(=O)c3ccccc23)ccc1F)N1CCN(C(=O)C2CC2)CC1 [AZD-2281]		less sensitive	
COc1cc(N2CCC(N3CCN(C)CC3)CC2)ccc1Nc1ncc(Cl)c(Nc2ccccc2S(=O)(=O)C(C)C)n1 [TAE684]			sensitivity (IC50) of high TN score vs low TN score cell lines [3]: less sensitive; sensitivity (IC50) of high iBCR score vs low iBCR score cell lines [3]: less sensitive
Cn1cc(C2=C(c3ccc(Cl)cc3Cl)C(=O)NC2=O)c2ccccc21 [SB216763]			sensitivity of high Agro score vs low Agro score cell lines [2]: less sensitive

Continued, in another order:

sensitivity (−log10[IC50]) of high TN score vs low TN score cell lines [2]	Structure (SMILES)	sensitivity of high iBCR score vs low iBCR score cell lines [2]	further results
more sensitive	Cc1cc(N2CCOCC2)cc2[nH]c(-c3c(NC[C@@H](O)c4cccc(Cl)c4)cc[nH]c3=O)nc12 [BMS-536924]	more sensitive	
more sensitive	COc1cc(F)c(F)c(Nc2ccc(I)cc2F)c1NS(=O)(=O)C1(C[C@H](O)CO)CC1 [RDEA-119]		
less sensitive	C[C@]1(O)C[C@@H](c2nc(-c3ccc4ccc(-c5ccccc5)nc4c3)c3c(N)nccn32)C1 [OSI-906]		
less sensitive	CN(Cc1cnc2nc(N)nc(N)c2n1)c1ccc(C(=O)N[C@@H](CCC(=O)O)C(=O)O)cc1 [methotrexate]	less sensitive	
less sensitive	Cc1ccc(-n2nc(C(C)(C)C)cc2NC(=O)Nc2ccc(OCCN3CCOCC3)c3ccccc23)cc1 [BIRB 0796]	less sensitive	
more sensitive	Cn1c(=O)n(-c2ccc(C(C)(C)C#N)cc2)c2c3cc(-c4cnc5ccccc5c4)ccc3ncc21 [BEZ235]	more sensitive	
